# Reference: US20090252708A1, “Biotherapeutic compositions comprising probiotic escherichia coli and uses thereof” (Biobalance LLC, priority 2006, published 2009)
# Key:
# DSS-induced colitis = test: Acute DSS-induced colitis in mice: DAI, body weight, stools, colon length and weight, tolerability; type: in vivo, C57BL/6 mice; settings: for DAI (table title: DAT Time Course Data): DSS days 7-13; for mice with weight loss: weight loss defined as >1%
# Procedure: Mice were dosed once daily for a period of 13 days by oro-gastric gavage with a 20 gauge, one-inch long needle (Popper & Sons, New Hyde Park, N.Y.). Dosages comprised either 40 mg/kg dose of metronidazole or 5×10^9 CFU/ml probiotic solution. A 0.6% saline solution was administered as a control.
# Disease Activity Indices (DAIs) were determined either daily or on alternate days, by evaluation of stool consistency and occult blood in the stool and weight loss on a standardized severity scale, as shown in Table 1 (Murthy, 1993).
# Disease Activity Index (DAI) Calculation: The individual scores for weight loss, stool consistency, and occult blood/bleeding are determined, and divided by 3 to determine a mean DAI for the mouse. For example, if an animal lost 12% of the initial body weight [score=3], had evidence of diarrhea [score=4], and evidence of gross rectal bleeding [score=4], the mean DAI would be 3±4±4=11/3=3.7
# In Example 3, weight loss was not very evident in the DSS-treated mice. Therefore, a modified DAI calculation was used. The modfied DAIs were calculated similarly to the DAIs of Table 1, but only the stool consistency and occult blood components were used for this determination.
# Colitis was then induced by providing the mice with a solution of 2% DSS (w/v) dissolved in the filtered water for days 7 to 13 of the study. One group of mice received water without DSS. Water consumption and body weight were recorded throughout the study.
# (§1) On day 13 of the study, animals were euthanized by exposure to carbon dioxide. The colon was rapidly removed and the total colon length was determined to the nearest 0.1 cm. Typically, a 2.5 cm segment of distal colon was fixed in 10% buffered formalin, for a subsequent histological evaluation (see below). The adjacent 2.5 cm segment of colon was weighed and then frozen in liquid nitrogen. This segment of colon was used for the evaluation of colonic MPO, as well as colonic cytokine levels.
# Control mice received 0.6% saline.
# IL-1β = test: Colonic cytokine ELISA in DSS colitis: IL-1β; type: in vivo, C57BL/6 mice; settings: day 13, M-17 5×10^9 CFU/ml, metronidazole 40 mg/kg
# Procedure: as §1
# (§2) The supernatant fraction from the colonic homogenate (see above) was aliquoted into appropriate test tubes and frozen at −70° C. Subsequently, the supernatants were used to measure relevant pro-inflammatory cytokines [e.g., IFN-γ, IL-1β, TNF-α, IL-12] using commercially available mouse ELISA kits (Fitzpatrick 2000). The data was typically expressed as pg/2.5 cm of colon.
# colonic MPO = test: Colonic myeloperoxidase (TMB method) in DSS colitis; type: in vivo, C57BL/6 mice; settings: day 13, M-17 5×10^9 CFU/ml, metronidazole 40 mg/kg
# Procedure: as §1
# The 2.5 segment of colon was homogenized for about 30 seconds in 0.5 ml of molecular biology grade distilled water, using a hand-held tissue homogenizer (TissueMiser) from Fisher Scientific (Pittsburgh, Pa.). The homogenate was then centrifuged at 10,000 RPM at 4° C. for 15 minutes. The pellet was resuspended in hexadecyltrimethylammonium bromide (HTAB) buffer (pH 6.0), for the measurement of colonic MPO. MPO was assayed by the tetramethylbenzidine (TMB) method (Fitzpatrick, 2000).
# [1] = after single, intravenous infusion; cited from earlier work
# [2] = tested on: individual isolates of the aerobic and facultative gram positive and gram negative flora; test: Metronidazole ex vivo on fecal isolates; type: cell-based; settings: ex vivo at 50 μg/ml
# TNF-α, IL-1β and IL-6 = test: RAW 264.7 macrophages: cytokine secretion, cytokines not told apart; type: cell-based, mouse; settings: metronidazole 50 μg/ml; heat-killed M-17 1×10^8 CFU/ml; conditioned media 10% (v/v)
# Procedure: The RAW 264.7 mouse macrophage cell line was obtained from American Type Culture Collection (ATCC). RAW 264.7 cells were grown in Dulbecco's Modified Eagle's Medium (DMEM) containing 10% FBS (Fetal Bovine Serum). The lipopolysaccharide (LPS) stimulation studies were conducted at a cell density of 2×10^6/ml. […] For the NF-κB p65 measurement, nuclear extracts were obtained from cells either immediately (0 hours) or 3 hours after LPS-stimulation. A protein determination of the nuclear extracts was done with the Bio-Rad protein assay (Bio-Rad Laboratories). For the p65 analysis, 10 μg of protein was utilized per sample. The nuclear binding of p65 was measured with the TransAM™ NF-κB p65 assay kit, according to the manufacturer's instructions.
# For the cytokine secretion experiments, after 0 or 4 hours of LPS exposure, the culture medium was collected for the measurement of cytokines (TNF-α, IL-1β and IL-6) by ELISA (Pierce-Endogen), according to the manufacturer's directions. […] The media was then collected and centrifuged at 10,000 RPM for 10 minutes. Next, the CM was passed through a 0.22 micron filter prior to use in cytokine secretion experiments. […] The pellet was then resuspended in a sufficient quantity of saline to achieve a final concentration of 1×10^8 CFU/ml. […] In some experiments, we also evaluated whether metronidazole ([…]) could inhibit cytokine secretion.
# IL-6 = test: Colonic cytokine ELISA in DSS colitis: IL-6; type: in vivo, C57BL/6 mice; settings: day 13, M-17 5×10^9 CFU/ml, metronidazole 40 mg/kg
# Procedure: as §1, §2
# IL-12 = test: Colonic cytokine ELISA in DSS colitis: IL-12; type: in vivo, C57BL/6 mice; settings: day 13, M-17 5×10^9 CFU/ml, metronidazole 40 mg/kg
# Procedure: as §1, §2
# IFN-γ = test: Colonic cytokine ELISA in DSS colitis: IFN-γ; type: in vivo, C57BL/6 mice; settings: day 13, M-17 5×10^9 CFU/ml, metronidazole 40 mg/kg
# Procedure: as §1, §2
# E. coli ATCC 202226 = test: Kirby-Bauer disc diffusion; type: cell-based, Escherichia coli; settings: 50 μg metronidazole paper disc, Mueller-Hinton Agar, overnight
# Procedure: The Kirby-Bauer disc diffusion method was used to determine the relative sensitivity of E. coli ATCC 202226 to metronidazole (Bauer, 1966). Five colonies of E. coli ATCC 202226 were picked from trypticase soy agar (TSA) using a sterile inoculation loop and suspended in trypticase soy broth (TSB). The TSB culture was grown for 6 hours at 37° C./200 rpm. This culture was diluted in TSB to match a 0.5 McFarland turbidity standard prior to saturating a sterile cotton swab and streaking the culture onto the surface of a Mueller-Hinton Agar plate. After allowing the surface of the plate to dry, a 50 μg metronidazole paper disc (Oxoid) was placed on the lawn. The plate was incubated overnight and the zone of inhibition was recorded.
# IL-10 = test: Colonic cytokine ELISA in DSS colitis: IL-10; type: in vivo, C57BL/6 mice; settings: day 13, M-17 5×10^9 CFU/ml, metronidazole 40 mg/kg
# Procedure: as §1, §2
# [3] = tested on: distal colon histological damage; test: Colonic histology score in DSS colitis; type: in vivo, C57BL/6 mice; settings: day 13, M-17 5×10^9 CFU/ml, metronidazole 40 mg/kg
# Procedure: Distal colonic specimens were processed by standard methods and embedded in paraffin by the Histology core facility at the Penn State University College of Medicine. Microscope slides were coded. Using coded hematoxylin-eosin H&E slides (1 slide per mouse) from the distal colon, colonic histology scores were determined from six different areas on the slide (Williams, 2001; Krieglstein, 2001). A mean total histology score value was calculated for each mouse.
# Total Histology Scores were determined by multiplying the percent involvement for each of the 3 different histological features by the area of involvement. Using this scoring system, the minimal score=0 and the maximal score=40. The percent involvement was determined with a 25 mm ocular grid attached to an Olympus CH light microscope. The histological evaluation was performed at a 400× magnification.
# [4] = day 13, M-17 5×10^9 CFU/ml, metronidazole 40 mg/kg, DSS
compound,measurement,setting,value
"Cc1ncc([N+](=O)[O-])n1CCO [metronidazole, 1-(beta-hydroxyethyl)-2-methyl-5-nitroimidazole]",reduction in mean DAI score compared with DSS-treated mice that received vehicle,"DSS-induced colitis; day 13, M-17 5×10^9 CFU/ml, metronidazole 40 mg/kg",47.4%
same,Colon length,DSS-induced colitis; [4],6.8±0.2 cm
same,Colon wt.,DSS-induced colitis; [4],70 ± 3 mg/2.5 cm
same,Colon length,"DSS-induced colitis; day 13, M-17 5×10^9 CFU/ml, metronidazole 40 mg/kg, DSS, listed as Metro",6.8 ± 0.2 cm
same,Modified DAI (0-4),"DSS-induced colitis; day 13, stool consistency and occult blood only, M-17 5×10^9 CFU/ml, metronidazole 40 mg/kg",1.0 ± 0.2
same,DAI (table title: DAT Time Course Data),"DSS-induced colitis; study day 0, M-17 5×10^9 CFU/ml, metronidazole 40 mg/kg",0 ± 0
same,DAI (table title: DAT Time Course Data),"DSS-induced colitis; study day 2, M-17 5×10^9 CFU/ml, metronidazole 40 mg/kg",0 ± 0
same,DAI (table title: DAT Time Course Data),"DSS-induced colitis; study day 4, M-17 5×10^9 CFU/ml, metronidazole 40 mg/kg",0.3 ± 0.2
same,DAI (table title: DAT Time Course Data),"DSS-induced colitis; study day 6, M-17 5×10^9 CFU/ml, metronidazole 40 mg/kg",0.2 ± 0.1
same,DAI (table title: DAT Time Course Data),"DSS-induced colitis; study day 8, M-17 5×10^9 CFU/ml, metronidazole 40 mg/kg",0.1 ± 0.1
same,DAI (table title: DAT Time Course Data),"DSS-induced colitis; study day 10, M-17 5×10^9 CFU/ml, metronidazole 40 mg/kg",0.7 ± 0.2
same,DAI (table title: DAT Time Course Data),"DSS-induced colitis; study day 12, M-17 5×10^9 CFU/ml, metronidazole 40 mg/kg",0.6 ± 0.2\
same,DAI (table title: DAT Time Course Data),"DSS-induced colitis; study day 13, M-17 5×10^9 CFU/ml, metronidazole 40 mg/kg",1.0 ± 0.2\
same,mice with weight loss,DSS-induced colitis; DSS-phase (days 7-13),30%
same,mice with weight loss,DSS-induced colitis; figures given before those of the DSS-phase,50%
same,IL-1β,IL-1β,359 ± 85 pg/2.5 cm
same,MPO,colonic MPO,4.3 ± 1.0 U/2.5 cm
same,half-life,[1],7.3 ± 1.0 h
same,inhibition of individual isolates,[2],did not inhibit
same,LPS-stimulated cytokine secretion,"TNF-α, IL-1β and IL-6",did not reduce
same,IL-6,IL-6,372 ± 75 pg/2.5 cm
same,IL-12,IL-12,32 ± 2 pg/2.5 cm
same,IFN-γ,IFN-γ,56 ± 28 pg/2.5 cm
same,zone of inhibition,E. coli ATCC 202226,No zone of inhibition
same,IL-10,IL-10,91 ± 7 pg/2.5 cm
same,Histology Score (0-40),[3],12.4 ± 0.9
